Reference: ChEMBL document CHEMBL1152778, “Design, synthesis, and biological evaluation of (2R,alphaS)-3,4-dihydro-2-[3-(1,1,2,2-tetrafluoroethoxy)phenyl]-5-[3-(trifluoromethoxy)-phenyl]-alpha-(trifluoromethyl)-1(2H)-quinolineethanol as potent and orally active cholesteryl ester transfer protein inhibitor” (J Med Chem, 2009)
Calls of active or inactive are those of the source. The calls are words filed in the database; no cut-off is given here.

Tests used:
[1] = target: T1, Lipoprotein lipase (Homo sapiens) (UniProt P06858); test: Inhibition of lipoprotein lipase activity assessed as release of free fatty acid from hydrolysis of VLDL by cell based assay
T1 sequence (whole entry): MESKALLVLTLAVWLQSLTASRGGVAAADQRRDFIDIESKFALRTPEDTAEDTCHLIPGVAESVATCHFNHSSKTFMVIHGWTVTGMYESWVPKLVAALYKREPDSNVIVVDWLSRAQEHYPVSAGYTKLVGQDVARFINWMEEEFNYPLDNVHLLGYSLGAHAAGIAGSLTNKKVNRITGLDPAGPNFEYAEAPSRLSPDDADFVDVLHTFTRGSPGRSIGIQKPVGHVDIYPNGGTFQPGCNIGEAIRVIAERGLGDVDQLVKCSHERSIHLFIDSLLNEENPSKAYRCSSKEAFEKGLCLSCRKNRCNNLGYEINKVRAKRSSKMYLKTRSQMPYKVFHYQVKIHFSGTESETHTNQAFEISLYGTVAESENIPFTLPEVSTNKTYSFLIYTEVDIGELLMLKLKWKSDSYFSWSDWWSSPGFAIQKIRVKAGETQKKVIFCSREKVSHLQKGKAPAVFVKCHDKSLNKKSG

[2] = tested on: Cynomolgus monkey; test: Increase in HDLC level in po dosed normal chow diet-fed cynomolgus monkey; assay type: functional, organism-based; conditions: Macaca fascicularis
[3] = Tmax in rat at 2 to 3 mg/kg, iv and 10 mg/kg, po; assay type: ADME, organism-based; conditions: in vivo
[4] = Plasma concentration in normal chow diet-fed cynomolgus monkey at 30 mg/kg, po for 5 days; assay type: ADME, organism-based, Macaca fascicularis; parameters: dose 30 mg/kg, route oral
[5] = tested on: Mus musculus; test: Increase in HDLC level in normal chow diet-fed human CETP transgenic mouse model at 3 mg/kg, po for 5 days measured after 2 hrs of last dose; assay type: functional, organism-based; parameters: dose 3 mg/kg
[6] = tested on: Cynomolgus monkey; test: Increase in HDLC level in normal chow diet-fed cynomolgus monkey at 30 mg/kg, po for 5 days measured after 10 hrs of last dose; assay type: functional, Macaca fascicularis
[7] = tested on: Cynomolgus monkey; test: Ex vivo inhibition of CETP in normal chow diet-fed cynomolgus monkey at 3 mg/kg, po for 5 days by Roar assay; assay type: functional; conditions: Macaca fascicularis, 120 h
[8] = tested on: Hamster; test: Increase in HDLC level in high-fat fed hamster model at 10 mg/kg, po for 5 days measured after 2 hrs of last dose; assay type: functional, Cricetinae
[9] = tested on: Mus musculus; test: Increase in HDLC level in po dosed normal chow diet-fed human CETP transgenic mouse model; assay type: functional, organism-based
[10] = tested on: Cynomolgus monkey; test: Ex vivo inhibition of CETP in normal chow diet-fed cynomolgus monkey at 10 mg/kg, po for 5 days by Roar assay; assay type: functional; conditions: Macaca fascicularis, 120 h
[11] = AUC in rat at 2 to 3 mg/kg, iv and 10 mg/kg, po; assay type: ADME, organism-based; conditions: plasma
[12] = target: T2, Microsomal triglyceride transfer protein large subunit (Homo sapiens) (UniProt P55157); test: Inhibition of microsomal triglyceride transfer protein by cell based assay
T2 sequence (whole entry): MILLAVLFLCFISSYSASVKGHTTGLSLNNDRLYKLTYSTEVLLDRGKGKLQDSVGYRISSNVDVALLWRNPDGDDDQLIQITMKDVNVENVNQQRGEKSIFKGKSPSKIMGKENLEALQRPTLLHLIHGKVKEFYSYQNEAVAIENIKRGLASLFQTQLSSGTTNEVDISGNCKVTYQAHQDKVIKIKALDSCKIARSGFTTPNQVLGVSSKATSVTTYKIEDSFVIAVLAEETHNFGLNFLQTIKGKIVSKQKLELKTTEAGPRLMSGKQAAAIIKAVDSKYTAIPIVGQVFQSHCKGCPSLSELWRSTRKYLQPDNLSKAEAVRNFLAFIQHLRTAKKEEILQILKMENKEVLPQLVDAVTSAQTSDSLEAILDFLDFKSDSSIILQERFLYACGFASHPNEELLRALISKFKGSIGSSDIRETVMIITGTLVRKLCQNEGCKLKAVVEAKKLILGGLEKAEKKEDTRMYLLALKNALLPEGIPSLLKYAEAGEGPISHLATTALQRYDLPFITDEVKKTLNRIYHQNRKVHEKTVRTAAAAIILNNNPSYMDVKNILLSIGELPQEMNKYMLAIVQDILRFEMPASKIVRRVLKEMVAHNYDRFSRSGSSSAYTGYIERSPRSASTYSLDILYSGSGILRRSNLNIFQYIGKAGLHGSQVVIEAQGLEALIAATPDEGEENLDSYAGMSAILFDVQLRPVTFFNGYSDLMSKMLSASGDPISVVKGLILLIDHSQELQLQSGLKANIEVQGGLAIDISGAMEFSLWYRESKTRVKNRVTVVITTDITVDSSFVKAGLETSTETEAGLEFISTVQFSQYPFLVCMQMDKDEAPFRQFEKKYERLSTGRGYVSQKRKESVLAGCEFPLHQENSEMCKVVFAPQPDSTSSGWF

[13] = Plasma concentration in normal chow diet-fed cynomolgus monkey at 3 mg/kg, po for 5 days; assay type: ADME, organism-based, Macaca fascicularis; parameters: dose 3 mg/kg, route oral
[14] = Plasma concentration in normal chow diet-fed cynomolgus monkey at 10 mg/kg, po for 5 days; assay type: ADME, organism-based, Macaca fascicularis; parameters: dose 10 mg/kg, route oral
[15] = Metabolic stability in human liver microsomes assessed as half life; assay type: ADME, Microsome
[16] = target: T3, Cholesteryl ester transfer protein (Homo sapiens, UniProt P11597); test: Inhibition of CETP-mediated transfer of cholesteryl ester to LDL/VLDL in human plasma by Roar assay; assay type: cell-free
T3 sequence (P11597 whole entry): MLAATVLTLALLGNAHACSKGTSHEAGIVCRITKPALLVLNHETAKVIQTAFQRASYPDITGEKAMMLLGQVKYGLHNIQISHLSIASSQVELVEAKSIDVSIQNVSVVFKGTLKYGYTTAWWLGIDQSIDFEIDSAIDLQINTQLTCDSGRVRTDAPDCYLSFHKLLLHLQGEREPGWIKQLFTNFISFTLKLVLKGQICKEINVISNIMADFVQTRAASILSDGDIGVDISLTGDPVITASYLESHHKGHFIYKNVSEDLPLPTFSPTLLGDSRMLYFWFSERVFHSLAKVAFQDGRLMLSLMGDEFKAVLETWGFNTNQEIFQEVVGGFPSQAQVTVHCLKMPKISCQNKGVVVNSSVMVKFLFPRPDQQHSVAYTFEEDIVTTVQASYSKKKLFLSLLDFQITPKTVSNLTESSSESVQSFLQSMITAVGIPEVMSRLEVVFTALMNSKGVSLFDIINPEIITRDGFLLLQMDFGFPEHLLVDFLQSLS

[17] = target: T3, Cholesteryl ester transfer protein; test: Inhibition of human plasma-derived CETP activity by scintillation proximity assay; assay type: cell-free
[18] = tested on: Cynomolgus monkey; test: Increase in HDLC level in normal chow diet-fed cynomolgus monkey at 10 mg/kg, po for 5 days measured after 10 hrs of last dose; assay type: functional, Macaca fascicularis
[19] = tested on: Cynomolgus monkey; test: Ex vivo inhibition of CETP in normal chow diet-fed cynomolgus monkey at 30 mg/kg, po for 5 days by Roar assay; assay type: functional; conditions: Macaca fascicularis, 120 h
[20] = target: T4, Hepatic triacylglycerol lipase (Homo sapiens) (UniProt P11150); test: Inhibition of hepatic lipase activity assessed as release of free fatty acid from hydrolysis of VLDL by cell based assay
T4 sequence (whole entry): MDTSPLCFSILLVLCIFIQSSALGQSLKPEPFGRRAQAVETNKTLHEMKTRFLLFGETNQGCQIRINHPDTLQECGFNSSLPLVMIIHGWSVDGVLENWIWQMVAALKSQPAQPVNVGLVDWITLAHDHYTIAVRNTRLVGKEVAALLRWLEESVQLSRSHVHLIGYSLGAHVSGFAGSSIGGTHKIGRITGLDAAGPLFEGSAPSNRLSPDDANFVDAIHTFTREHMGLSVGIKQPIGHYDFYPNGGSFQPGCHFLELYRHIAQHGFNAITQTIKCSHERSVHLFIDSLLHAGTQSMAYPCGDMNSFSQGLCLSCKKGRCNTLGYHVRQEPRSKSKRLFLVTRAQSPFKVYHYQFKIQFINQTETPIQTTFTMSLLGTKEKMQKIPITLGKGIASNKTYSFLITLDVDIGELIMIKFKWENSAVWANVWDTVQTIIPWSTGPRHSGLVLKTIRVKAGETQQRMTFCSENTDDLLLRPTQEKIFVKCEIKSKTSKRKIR

O[C@@H](CN1c2cccc(-c3cccc(OC(F)(F)F)c3)c2CC[C@@H]1c1cccc(OC(F)(F)C(F)F)c1)C(F)(F)F
Activity [1]: inactive | Activity [2]: Dose-dependent effect | Tmax [3]: 6 h | concentration at 120 h [4]: 5900 nM | Activity [5]: Active | Activity [6]: 32% | inhibition in vivo at 3 mg/kg [7]: 11% | Activity [8]: 36% | Activity [9]: Dose-dependent effect | inhibition in vivo at 10 mg/kg [10]: 51% | AUC [11]: 31300 ng·h/mL | Activity [12]: inactive | concentration at 120 h [13]: 400 nM | concentration at 120 h [14]: 2700 nM | half-life [15]: > 2.13 h | IC50 [16]: 1200 nM | IC50 [17]: 39 nM | Activity [18]: 16% | inhibition in vivo at 30 mg/kg [19]: 67% | Activity [20]: inactive
